Here are results for five molecules from US9630977B2, “Cephalosporin derivatives and pharmaceutical compositions thereof” (Legochem Biosciences, Inc., priority 2011, dated 2017).

In brackets after ≈: the same amount, converted by molar mass. Where only a bound is given, the exact number is not on record here.

What all share (assay): In vitro antibacterial activity test (broth microdilution)
Common to all, as to assay type: cell-based

One assay deals with P. aeruginosa 6065Y. The note with it: Pseudomonas aeruginosa, read-out: MIC90. As for the experimental part:
(§1) To evaluate antibacterial activity of each of the compounds of Examples 1 to 68, in vitro antibacterial activity test was performed.
(§2) The in vitro antibacterial activity was evaluated by measuring MIC90 (ug/mL) of each of the compounds of Examples 1 to 68, which is defined as the lowest concentration of an antibiotic that will inhibit the visible growth of 90% of microorganisms after incubation as compared with a control group to which the antibiotic is not treated. MIC90 values were measured by the broth microdilution method developed by the Clinical and Laboratory Standards Institute (CLSI) (see CLSI M7-A5, Methods for Dilution Antimicrobial Susceptibility Test for Bacteria that Grow Aerobically-Fifth Edition (2000): CLSI, Villanova, Pa.).
(§3) In vitro antibacterial activity was measured with respect to the following 19 clinical isolates: M. catarrhalis; P. aeruginosa (5 strains); K. pneumoniae (6 strains); A. baumannii (3 strains); E. coli (2 strains); A. calcoaceticus; and E. cloacae.
(§4) Test compounds each (the cephalosporin derivative compounds prepared in Examples 1 to 68) were dissolved in DMSO at the concentration of 10,240 ug/mL, were diluted by two fold with DMSO, and then were diluted by twenty fold with sterilized distilled water. The final concentration in the antibacterial activity test was in the range of […] to 128 ug/mL, and the final concentration of DMSO used as an adjuvant was 2.5% (V/V).

Another assay concerns E. coli AG100. The note with it: Escherichia coli, AG100, E. coli AG100; read-out: MIC90. As for the experimental part: as §1, §2, §3, §4
The next assay relates to P. aeruginosa 43. The note with it: Pseudomonas aeruginosa; P. aeruginosa 43; read-out: MIC90. As for the experimental part:
as §1, §2, §3, §4

The subject of a further assay is A. baumannii 52. The note with it: Acinetobacter baumannii; A. baumannii 52; read-out: MIC90. As for the experimental part:
as §1, §2, §3, §4

The subject of a further assay is A. baumannii 46. The note with it: Acinetobacter baumannii; A. baumannii 46; read-out: MIC90. As for the experimental part: as §1, §2, §3, §4
The test system of another assay is K. pneumoniae β14. The note with it: Klebsiella pneumoniae, read-out: MIC90. As for the experimental part:
as §1, §2, §3, §4

The next assay has as its system E. coli β4. The following applies: Escherichia coli, read-out: MIC90. As for the experimental part: as §1, §2, §3, §4
For the next assay, the system named is P. aeruginosa 37. The following applies: Pseudomonas aeruginosa, 37, P. aeruginosa 37; read-out: MIC90. As for the experimental part:
as §1, §2, §3, §4

A further assay deals with M. catarrhalis 2524. The note with it: Moraxella catarrhalis; M. catarrhalis 2524; read-out: MIC90. As for the experimental part:
as §1, §2, §3, §4

The test system of another assay is E. cloacae β19. The note with it: Enterobacter cloacae, read-out: MIC90. As for the experimental part: as §1, §2, §3, §4
For assay [1], the system named is A. calcoaceticus ATCC15473. The note with it: Acinetobacter calcoaceticus; A. calcoaceticus ATCC15473; read-out: MIC90. As for the experimental part:
as §1, §2, §3, §4

For another assay, the system named is A. baumannii 49. The following applies: Acinetobacter baumannii; A. baumannii 49; read-out: MIC90. As for the experimental part:
as §1, §2, §3, §4

The subject of another assay is P. aeruginosa 1912E. The note with it: Pseudomonas aeruginosa, 1912E, read-out: MIC90. As for the experimental part: as §1, §2, §3, §4
The subject of another assay is P. aeruginosa 40. The note with it: Pseudomonas aeruginosa, 40, P. aeruginosa 40; read-out: MIC90. As for the experimental part: as §1, §2, §3, §4
The subject of another assay is K. pneumoniae 2011E. The following applies: Klebsiella pneumoniae, 2011E, K. pneumoniae 2011E; read-out: MIC90. As for the experimental part: as §1, §2, §3, §4

On to `Cn1cc(O)c(=O)cc1C(=O)NCCNc1c[n+](CC2=C(C(=O)[O-])N3C(=O)[C@@H](NC(=O)/C(=N\OC(C)(C)C(=O)O)c4csc(N)n4)C3SC2)cnc1N` (stereo partly drawn) [Compound 2], for which the MIC90 in the assay on P. aeruginosa 6065Y was 16 µg/mL (≈ 20.7 µM); with E. coli AG100 it was 0.25 µg/mL (≈ 0.324 µM); with P. aeruginosa 43, 8 µg/mL (≈ 10.4 µM); in the assay with A. baumannii 52 it was over 128 µg/mL; with A. baumannii 46 it was 4 µg/mL (≈ 5.18 µM); in the assay on K. pneumoniae β14, 64 µg/mL (≈ 82.9 µM). The MIC90 is 4 µg/mL (≈ 5.18 µM) in the assay on E. coli β4; 4 µg/mL (≈ 5.18 µM) in the assay with P. aeruginosa 37; 1 µg/mL (≈ 1.3 µM) with M. catarrhalis 2524; over 128 µg/mL with E. cloacae β19; 2 µg/mL (≈ 2.59 µM) in assay [1]; over 128 µg/mL in the assay on A. baumannii 49. Also, the figures for the MIC90 with P. aeruginosa 1912E, in the assay on P. aeruginosa 40 and in the assay on K. pneumoniae 2011E were 2 µg/mL (≈ 2.59 µM), 4 µg/mL (≈ 5.18 µM) and 4 µg/mL (≈ 5.18 µM), respectively.
Turning to `C[C@H](O/N=C(\C(=O)N[C@@H]1C(=O)N2C(C(=O)[O-])=C(C[n+]3cnc(N)c(NCCNC(=O)c4cc(=O)c(O)cn4O)c3)CSC12)c1csc(N)n1)C(=O)O` (stereo partly drawn) [Compound 3], the MIC90 was 0.5 µg/mL (≈ 0.658 µM) with P. aeruginosa 6065Y; under 0.0625 µg/mL with E. coli AG100; 0.25 µg/mL (≈ 0.329 µM) in the assay on P. aeruginosa 43; 128 µg/mL (≈ 168 µM) in the assay with A. baumannii 52; 2 µg/mL (≈ 2.63 µM) in the assay with A. baumannii 46; 64 µg/mL (≈ 84.2 µM) with K. pneumoniae β14. The MIC90 was 1 µg/mL (≈ 1.32 µM) in the assay with E. coli β4; 1 µg/mL (≈ 1.32 µM) in the assay with P. aeruginosa 37; 2 µg/mL (≈ 2.63 µM) with M. catarrhalis 2524; 2 µg/mL (≈ 2.63 µM) in the assay on E. cloacae β19; 0.25 µg/mL (≈ 0.329 µM) in [1]; over 128 µg/mL in the assay on A. baumannii 49. Moreover, the MIC90 in the assay with P. aeruginosa 1912E came to 32 µg/mL (≈ 42.1 µM); in the assay on P. aeruginosa 40 it was 0.125 µg/mL (≈ 0.165 µM); in the assay with K. pneumoniae 2011E, 1 µg/mL (≈ 1.32 µM).
Regarding `CN(CCNc1c[n+](CC2=C(C(=O)[O-])N3C(=O)[C@@H](NC(=O)/C(=N\OC(C)(C)C(=O)O)c4csc(N)n4)C3SC2)cnc1N)C(=O)c1ccc(O)c(O)c1` (stereo partly drawn) [Compound 27], the MIC90 was 4 µg/mL (≈ 5.19 µM) with P. aeruginosa 6065Y; 1 µg/mL (≈ 1.3 µM) in the assay with E. coli AG100; 1 µg/mL (≈ 1.3 µM) in the assay on P. aeruginosa 43; over 128 µg/mL with A. baumannii 52; 16 µg/mL (≈ 20.8 µM) with A. baumannii 46; 32 µg/mL (≈ 41.5 µM) in the assay with K. pneumoniae β14. Further, the MIC90 was 2 µg/mL (≈ 2.59 µM) in the assay on E. coli β4; 2 µg/mL (≈ 2.59 µM) in the assay on P. aeruginosa 37; 0.25 µg/mL (≈ 0.324 µM) in the assay on M. catarrhalis 2524; 16 µg/mL (≈ 20.8 µM) in the assay with E. cloacae β19; 4 µg/mL (≈ 5.19 µM) in [1]; over 128 µg/mL in the assay with A. baumannii 49. The MIC90 in the assay with P. aeruginosa 1912E was 1 µg/mL (≈ 1.3 µM); in the assay with P. aeruginosa 40, 2 µg/mL (≈ 2.59 µM); in the assay with K. pneumoniae 2011E, 2 µg/mL (≈ 2.59 µM).
Take `CC(C)(O/N=C(\C(=O)N[C@@H]1C(=O)N2C(C(=O)[O-])=C(C[n+]3cnc(N)c(NC(=O)CCNC(=O)c4ccc(O)c(O)c4)c3)CSC12)c1csc(N)n1)C(=O)O` (stereo partly drawn) [Compound 28]: the MIC90 with P. aeruginosa 6065Y was 16 µg/mL (≈ 20.4 µM); with E. coli AG100, over 128 µg/mL; with P. aeruginosa 43, 4 µg/mL (≈ 5.1 µM); with A. baumannii 52, 16 µg/mL (≈ 20.4 µM); in the assay with A. baumannii 46 it was 8 µg/mL (≈ 10.2 µM); in the assay with K. pneumoniae β14, 64 µg/mL (≈ 81.6 µM). Moreover, the MIC90 was 8 µg/mL (≈ 10.2 µM) in the assay with E. coli β4; 8 µg/mL (≈ 10.2 µM) with P. aeruginosa 37; 8 µg/mL (≈ 10.2 µM) in the assay on M. catarrhalis 2524; 128 µg/mL (≈ 163 µM) with E. cloacae β19; 1 µg/mL (≈ 1.27 µM) in assay [1]; over 128 µg/mL with A. baumannii 49. The MIC90 in the assay with P. aeruginosa 1912E was found to be 32 µg/mL (≈ 40.8 µM); in the assay on P. aeruginosa 40, 16 µg/mL (≈ 20.4 µM); in the assay on K. pneumoniae 2011E, 8 µg/mL (≈ 10.2 µM).
As for `CC(C)(O/N=C(\C(=O)N[C@@H]1C(=O)N2C(C(=O)[O-])=C(C[n+]3cnc(N)c(NCCCNC(=O)c4ccc(O)c(O)c4)c3)CSC12)c1csc(N)n1)C(=O)O` (stereo partly drawn) [Compound 31], the MIC90 in the assay with P. aeruginosa 6065Y is 4 µg/mL (≈ 5.19 µM); with E. coli AG100 it was 0.25 µg/mL (≈ 0.324 µM); in the assay with P. aeruginosa 43 it was 1 µg/mL (≈ 1.3 µM); in the assay with A. baumannii 52, 64 µg/mL (≈ 83 µM); in the assay on A. baumannii 46, 4 µg/mL (≈ 5.19 µM); in the assay on K. pneumoniae β14, 32 µg/mL (≈ 41.5 µM). Further, the MIC90 is 8 µg/mL (≈ 10.4 µM) with E. coli β4; 1 µg/mL (≈ 1.3 µM) with P. aeruginosa 37; 1 µg/mL (≈ 1.3 µM) with M. catarrhalis 2524; 16 µg/mL (≈ 20.8 µM) in the assay with E. cloacae β19; 1 µg/mL (≈ 1.3 µM) in [1]; 32 µg/mL (≈ 41.5 µM) in the assay on A. baumannii 49. Also, the figures for the MIC90 with P. aeruginosa 1912E, with P. aeruginosa 40 and with K. pneumoniae 2011E were 1 µg/mL (≈ 1.3 µM), 2 µg/mL (≈ 2.59 µM) and 8 µg/mL (≈ 10.4 µM), respectively.
